Measured values reported in EP0198522A1, “Heterocyclic herbicides” (SHELL INTERNATIONALE RESEARCH MAATSCHAPPIJ B.V., priority 1985, dated 1986).

Columns and labels:
Assay type in all cases: in vivo
soya bean, Glycine max [1] = test: Herbicidal activity, pre-emergence test (soil spray); conditions: assessed visually twelve days after spraying, 0-9 scale, 0 = growth as untreated control, 9 = death
Procedure: (§1) To evaluate their herbicidal activity, compounds according to the invention were tested using as representative range of plants: maize, Zea mays (Mz); rice, Oryza sativa (R); barnyard grass, Echinochloa crusgalli (BG); oat, Avena sativa (0); linseed, Linum usitatissisum (L); mustard, Sinapsis alba (M); sugar beet, Beta vulgaris (SB) and soya bean, Glycine max (S).
(§2) The tests fall into two categories, pre-emergence and post-emergence. […] The post-emergence tests involved two types of test, viz., soil drench and foliar spray tests. In the soil drench tests the soil in which the seedling plants of the above species were growing was drenched with a liquid formulation containing a compound of the invention, and in the foliar spray tests the seedling plants were sprayed with such a formulation.
(§3) The soil used in the tests was a prepared horticultural loam.
(§4) These acetone solutions were diluted with water and the resulting formulations applied at dosage levels corresponding to 5 kg or 1 kg of active material per hectare in a volume equivalent to 600 litres per hectare in the soil spray and foliar spray test, and at a dosage of level equivalent to 10 kilograms of active material per hectare in a volume equivalent to approximately 3,000 litres per hectare in the soil drench tests.
(§5) In the pre-emexgence tests untreated sown soil and in the post-emergence tests untreated soil bearing seedling plants were used as controls.
(§6) The herbicidal effects of the test compounds were assessed visually twelve days after spraying the foliage and the soil, and thirteen days after drenching the soil and were recorded on a 0-9 scale. A rating 0 indicates growth as untreated control, a rating 9 indicates death. An increase of 1 unit on the linear scale approximates to a 10% increase in the level of effect.

mustard, Sinapsis alba [2] = test: as above; conditions: assessed visually twelve days after spraying, 0-9 scale, 0 = growth as untreated control, 9 = death
Procedure: as §1, §2, §3, §4, §5, §6

maize, Zea mays [3] = test: as above; conditions: assessed visually twelve days after spraying, 0-9 scale, 0 = growth as untreated control, 9 = death
Procedure: as §1, §2, §3, §4, §5, §6

[4] = tested on: linseed, Linum usitatissisum; test: as above; conditions: assessed visually twelve days after spraying, 0-9 scale, 0 = growth as untreated control, 9 = death
Procedure: as §1, §2, §3, §4, §5, §6

oat, Avena sativa [5] = test: as above; conditions: assessed visually twelve days after spraying, 0-9 scale, 0 = growth as untreated control, 9 = death
Procedure: as §1, §2, §3, §4, §5, §6

[6] = tested on: barnyard grass, Echinochloa crusgalli; test: as above; conditions: assessed visually twelve days after spraying, 0-9 scale, 0 = growth as untreated control, 9 = death
Procedure: as §1, §2, §3, §4, §5, §6

rice, Oryza sativa [7] = test: as above; conditions: assessed visually twelve days after spraying, 0-9 scale, 0 = growth as untreated control, 9 = death
Procedure: as §1, §2, §3, §4, §5, §6

[8] = tested on: sugar beet, Beta vulgaris; test: as above; conditions: assessed visually twelve days after spraying, 0-9 scale, 0 = growth as untreated control, 9 = death
Procedure: as §1, §2, §3, §4, §5, §6

soya bean, Glycine max [9] = test: Herbicidal activity, post-emergence soil drench test; conditions: 10 kg/ha soil drench; assessed visually thirteen days after drenching; 0-9 scale, 0 = growth as untreated control, 9 = death
Procedure: as §1, §2, §3, §4, §5, §6

mustard, Sinapsis alba [10] = test: as above; conditions: 10 kg/ha soil drench; assessed visually thirteen days after drenching; 0-9 scale, 0 = growth as untreated control, 9 = death
Procedure: as §1, §2, §3, §4, §5, §6

maize, Zea mays [11] = test: as above; conditions: 10 kg/ha soil drench; assessed visually thirteen days after drenching; 0-9 scale, 0 = growth as untreated control, 9 = death
Procedure: as §1, §2, §3, §4, §5, §6

[12] = tested on: linseed, Linum usitatissisum; test: as above; conditions: 10 kg/ha soil drench; assessed visually thirteen days after drenching; 0-9 scale, 0 = growth as untreated control, 9 = death
Procedure: as §1, §2, §3, §4, §5, §6

oat, Avena sativa [13] = test: as above; conditions: 10 kg/ha soil drench; assessed visually thirteen days after drenching; 0-9 scale, 0 = growth as untreated control, 9 = death
Procedure: as §1, §2, §3, §4, §5, §6

[14] = tested on: barnyard grass, Echinochloa crusgalli; test: as above; conditions: 10 kg/ha soil drench; assessed visually thirteen days after drenching; 0-9 scale, 0 = growth as untreated control, 9 = death
Procedure: as §1, §2, §3, §4, §5, §6

rice, Oryza sativa [15] = test: as above; conditions: 10 kg/ha soil drench; assessed visually thirteen days after drenching; 0-9 scale, 0 = growth as untreated control, 9 = death
Procedure: as §1, §2, §3, §4, §5, §6

[16] = tested on: sugar beet, Beta vulgaris; test: as above; conditions: 10 kg/ha soil drench; assessed visually thirteen days after drenching; 0-9 scale, 0 = growth as untreated control, 9 = death
Procedure: as §1, §2, §3, §4, §5, §6

soya bean, Glycine max [17] = test: Herbicidal activity, post-emergence foliar spray test; conditions: assessed visually twelve days after spraying, 0-9 scale, 0 = growth as untreated control, 9 = death
Procedure: as §1, §2, §3, §4, §5, §6

mustard, Sinapsis alba [18] = test: as above; conditions: assessed visually twelve days after spraying, 0-9 scale, 0 = growth as untreated control, 9 = death
Procedure: as §1, §2, §3, §4, §5, §6

maize, Zea mays [19] = test: as above; conditions: assessed visually twelve days after spraying, 0-9 scale, 0 = growth as untreated control, 9 = death
Procedure: as §1, §2, §3, §4, §5, §6

[20] = tested on: linseed, Linum usitatissisum; test: as above; conditions: assessed visually twelve days after spraying, 0-9 scale, 0 = growth as untreated control, 9 = death
Procedure: as §1, §2, §3, §4, §5, §6

oat, Avena sativa [21] = test: as above; conditions: assessed visually twelve days after spraying, 0-9 scale, 0 = growth as untreated control, 9 = death
Procedure: as §1, §2, §3, §4, §5, §6

[22] = tested on: barnyard grass, Echinochloa crusgalli; test: as above; conditions: assessed visually twelve days after spraying, 0-9 scale, 0 = growth as untreated control, 9 = death
Procedure: as §1, §2, §3, §4, §5, §6

rice, Oryza sativa [23] = test: as above; conditions: assessed visually twelve days after spraying, 0-9 scale, 0 = growth as untreated control, 9 = death
Procedure: as §1, §2, §3, §4, §5, §6

[24] = tested on: sugar beet, Beta vulgaris; test: as above; conditions: assessed visually twelve days after spraying, 0-9 scale, 0 = growth as untreated control, 9 = death
Procedure: as §1, §2, §3, §4, §5, §6

## COC(=O)c1cc2cc3c(cc2nc1C1=NC(=O)C(C)(C(C)C)N1)OCO3 (stereo not drawn) [Example 1, Methyl-2-(5-i.saprapyl-5-methyl-4-oxo-2-imidazolin-2-yl)-[1,3]-dioxolo[4,5-g] quinoline-3-carboxylate]
Soya bean, Glycine max [1]; Dosage 1 kg/ha
  Pre-emergence S (herbicidal effect rating): 0
Soya bean, Glycine max [1]; Dosage 5 kg/ha
  Pre-emergence S (herbicidal effect rating): 0
mustard, Sinapsis alba [2]; Dosage 1 kg/ha
  Pre-emergence M (herbicidal effect rating): 4
mustard, Sinapsis alba [2]; Dosage 5 kg/ha
  Pre-emergence M (herbicidal effect rating): 7
maize, Zea mays [3]; Dosage 1 kg/ha
  Pre-emergence Mz (herbicidal effect rating): 5
maize, Zea mays [3]; Dosage 5 kg/ha
  Pre-emergence Mz (herbicidal effect rating): 7
[4]; Dosage 1 kg/ha
  Pre-emergence L (herbicidal effect rating): 6
[4]; Dosage 5 kg/ha
  Pre-emergence L (herbicidal effect rating): 7
oat, Avena sativa [5]; Dosage 1 kg/ha
  Pre-emergence O (herbicidal effect rating): 5
oat, Avena sativa [5]; Dosage 5 kg/ha
  Pre-emergence O (herbicidal effect rating): 7
[6]; Dosage 1 kg/ha
  Pre-emergence BG (herbicidal effect rating): 5
[6]; Dosage 5 kg/ha
  Pre-emergence BG (herbicidal effect rating): 8
rice, Oryza sativa [7]; Dosage 1 kg/ha
  Pre-emergence R (herbicidal effect rating): 4
rice, Oryza sativa [7]; Dosage 5 kg/ha
  Pre-emergence R (herbicidal effect rating): 8
[8]; Dosage 1 kg/ha
  Pre-emergence SB (herbicidal effect rating): 6
[8]; Dosage 5 kg/ha
  Pre-emergence SB (herbicidal effect rating): 6
Soya bean, Glycine max [9]
  Soil drench 10/kg/ha S (herbicidal effect rating): 4
mustard, Sinapsis alba [10]
  Soil drench 10/kg/ha M (herbicidal effect rating): 8
maize, Zea mays [11]
  Soil drench 10/kg/ha Mz (herbicidal effect rating): 6
[12]
  Soil drench 10/kg/ha L (herbicidal effect rating): 6
oat, Avena sativa [13]
  Soil drench 10/kg/ha O (herbicidal effect rating): 6
[14]
  Soil drench 10/kg/ha BG (herbicidal effect rating): 7
rice, Oryza sativa [15]
  Soil drench 10/kg/ha R (herbicidal effect rating): 7
[16]
  Soil drench 10/kg/ha SB (herbicidal effect rating): 7
Soya bean, Glycine max [17]; Dosage 1 kg/ha
  Foliar spray S (herbicidal effect rating): 0
Soya bean, Glycine max [17]; Dosage 5 kg/ha
  Foliar spray S (herbicidal effect rating): 2
mustard, Sinapsis alba [18]; Dosage 1 kg/ha
  Foliar spray M (herbicidal effect rating): 5
mustard, Sinapsis alba [18]; Dosage 5 kg/ha
  Foliar spray M (herbicidal effect rating): 7
maize, Zea mays [19]; Dosage 1 kg/ha
  Foliar spray Mz (herbicidal effect rating): 5
maize, Zea mays [19]; Dosage 5 kg/ha
  Foliar spray Mz (herbicidal effect rating): 7
[20]; Dosage 1 kg/ha
  Foliar spray L (herbicidal effect rating): 6
[20]; Dosage 5 kg/ha
  Foliar spray L (herbicidal effect rating): 7
oat, Avena sativa [21]; Dosage 1 kg/ha
  Foliar spray O (herbicidal effect rating): 5
oat, Avena sativa [21]; Dosage 5 kg/ha
  Foliar spray O (herbicidal effect rating): 6
[22]; Dosage 1 kg/ha
  Foliar spray BG (herbicidal effect rating): 4
[22]; Dosage 5 kg/ha
  Foliar spray BG (herbicidal effect rating): 7
rice, Oryza sativa [23]; Dosage 1 kg/ha
  Foliar spray R (herbicidal effect rating): 4
rice, Oryza sativa [23]; Dosage 5 kg/ha
  Foliar spray R (herbicidal effect rating): 6
[24]; Dosage 1 kg/ha
  Foliar spray SB (herbicidal effect rating): 6
[24]; Dosage 5 kg/ha
  Foliar spray SB (herbicidal effect rating): 8

## CC(C)C1(C)NC(c2cc3c(cc2C(=O)O)OCO3)=NC1=O (stereo not drawn) [Example 7, 2-(5-isopropyl-5-methyl-4-oxo-2-imidazolin-2-yl)-[1,3]-dioxolo [4,5-d]benzoic acid]
Soya bean, Glycine max [1]; Dosage 1 kg/ha
  Pre-emergence S (herbicidal effect rating): 0
Soya bean, Glycine max [1]; Dosage 5 kg/ha
  Pre-emergence S (herbicidal effect rating): 1
mustard, Sinapsis alba [2]; Dosage 1 kg/ha
  Pre-emergence M (herbicidal effect rating): 4
mustard, Sinapsis alba [2]; Dosage 5 kg/ha
  Pre-emergence M (herbicidal effect rating): 7
maize, Zea mays [3]; Dosage 1 kg/ha
  Pre-emergence Mz (herbicidal effect rating): 1
maize, Zea mays [3]; Dosage 5 kg/ha
  Pre-emergence Mz (herbicidal effect rating): 6
[4]; Dosage 1 kg/ha
  Pre-emergence L (herbicidal effect rating): 3
[4]; Dosage 5 kg/ha
  Pre-emergence L (herbicidal effect rating): 7
oat, Avena sativa [5]; Dosage 1 kg/ha
  Pre-emergence O (herbicidal effect rating): 0
oat, Avena sativa [5]; Dosage 5 kg/ha
  Pre-emergence O (herbicidal effect rating): 5
[6]; Dosage 1 kg/ha
  Pre-emergence BG (herbicidal effect rating): 3
[6]; Dosage 5 kg/ha
  Pre-emergence BG (herbicidal effect rating): 7
rice, Oryza sativa [7]; Dosage 1 kg/ha
  Pre-emergence R (herbicidal effect rating): 8
rice, Oryza sativa [7]; Dosage 5 kg/ha
  Pre-emergence R (herbicidal effect rating): 9
[8]; Dosage 1 kg/ha
  Pre-emergence SB (herbicidal effect rating): 7
[8]; Dosage 5 kg/ha
  Pre-emergence SB (herbicidal effect rating): 8
Soya bean, Glycine max [17]; Dosage 1 kg/ha
  Foliar spray S (herbicidal effect rating): 0
Soya bean, Glycine max [17]; Dosage 5 kg/ha
  Foliar spray S (herbicidal effect rating): 4
mustard, Sinapsis alba [18]; Dosage 1 kg/ha
  Foliar spray M (herbicidal effect rating): 7
mustard, Sinapsis alba [18]; Dosage 5 kg/ha
  Foliar spray M (herbicidal effect rating): 7
maize, Zea mays [19]; Dosage 1 kg/ha
  Foliar spray Mz (herbicidal effect rating): 2
maize, Zea mays [19]; Dosage 5 kg/ha
  Foliar spray Mz (herbicidal effect rating): 3
[20]; Dosage 1 kg/ha
  Foliar spray L (herbicidal effect rating): 3
[20]; Dosage 5 kg/ha
  Foliar spray L (herbicidal effect rating): 4
oat, Avena sativa [21]; Dosage 1 kg/ha
  Foliar spray O (herbicidal effect rating): 1
oat, Avena sativa [21]; Dosage 5 kg/ha
  Foliar spray O (herbicidal effect rating): 2
[22]; Dosage 1 kg/ha
  Foliar spray BG (herbicidal effect rating): 5
[22]; Dosage 5 kg/ha
  Foliar spray BG (herbicidal effect rating): 6
rice, Oryza sativa [23]; Dosage 1 kg/ha
  Foliar spray R (herbicidal effect rating): 2
rice, Oryza sativa [23]; Dosage 5 kg/ha
  Foliar spray R (herbicidal effect rating): 3
[24]; Dosage 1 kg/ha
  Foliar spray SB (herbicidal effect rating): 6
[24]; Dosage 5 kg/ha
  Foliar spray SB (herbicidal effect rating): 7
